# In ChEMBL document CHEMBL1156106 (J Med Chem, 2009):
# pIC50, pKi: −log10 of the molar value.
# Tests used:
# [1] = tested on: Mus musculus; test: Antidepressant activity in ip dosed mouse assessed as duration of locomotor activity; assay type: functional
# [2] = tested on: Mus musculus; test: Antidepressant activity in ip dosed mouse assessed as stimulation of locomotor activity relative to cocaine; assay type: functional
# [3] = tested on: Rattus norvegicus; test: Effect on behavioural activity in rat assessed as cocaine-induced lever response at 50 mg/kg, ip pretreated with cocaine for 15 mins by drug-discrimination studies; assay type: functional; details: route intraperitoneal
# [4] = tested on: Rattus norvegicus; test: Effect on behavioural activity in rat assessed as cocaine-induced lever response at 5 mg/kg, ip pretreated with cocaine for 15 mins by drug-discrimination studies; assay type: functional; details: route intraperitoneal
# [5] = tested on: Rattus norvegicus; test: Effect on behavioural activity in rat assessed as cocaine-induced lever response at 2.5 mg/kg, ip pretreated with cocaine for 15 mins by drug-discrimination studies; assay type: functional; details: route intraperitoneal
# [6] = target: T1, Sodium-dependent serotonin transporter (Homo sapiens, UniProt P31645); test: biochemical; assay type: cell-based, HEK293
# [7] = tested on: Mus musculus; test: Antidepressant activity in ip dosed mouse assessed as stimulation of locomotor activity; assay type: functional
# [8] = tested on: Rattus norvegicus; test: Effect on behavioural activity in rat assessed as cocaine-induced lever response at 10 mg/kg, ip pretreated with cocaine for 15 mins by drug-discrimination studies; assay type: functional; details: route intraperitoneal
# [9] = tested on: Mus musculus; test: Antidepressant activity in ip dosed mouse assessed as time to reach peak stimulation of locomotor activity; assay type: functional
# [10] = tested on: Rattus norvegicus; test: Effect on behavioural activity in rat assessed as cocaine-induced lever response at 100 mg/kg, ip pretreated with cocaine for 15 mins by drug-discrimination studies; assay type: functional; details: route intraperitoneal
# [11] = target: T2, Sodium-dependent noradrenaline transporter (Homo sapiens, UniProt P23975); test: Displacement of [125I]RTI55 from cloned human NET expressed in HEK293 cells; assay type: cell-based
# [12] = tested on: Rattus norvegicus; test: Effect on behavioural activity in ip dosed rat assessed as cocaine-induced lever response pretreated with cocaine by drug-discrimination studies; assay type: functional
# [13] = tested on: Rattus norvegicus; test: Effect on behavioural activity in rat assessed as cocaine-induced lever response at 0.5 mg/kg, ip pretreated with cocaine for 15 mins by drug-discrimination studies; assay type: functional; details: route intraperitoneal
# [14] = tested on: Rattus norvegicus; test: Effect on behavioural activity in rat assessed as cocaine-induced lever response at 25 mg/kg, ip pretreated with cocaine for 15 mins by drug-discrimination studies; assay type: functional; details: route intraperitoneal
# [15] = tested on: Rattus norvegicus; test: Effect on behavioural activity in rat assessed as cocaine-induced lever response at 1 mg/kg, ip pretreated with cocaine for 15 mins by drug-discrimination studies; assay type: functional; details: route intraperitoneal
# [16] = target: T3, Sodium-dependent dopamine transporter (Homo sapiens, UniProt Q01959); test: Inhibition of [3H]dopamine reuptake at human DAT expressed in HEK293 cells; assay type: cell-based
# [17] = target: T3, Sodium-dependent dopamine transporter; test: Displacement of [125I]RTI55 from cloned human DAT expressed in HEK293 cells; assay type: cell-based
# [18] = target: T1, Sodium-dependent serotonin transporter; test: Inhibition of [3H]serotonin reuptake at human SERT expressed in HEK293 cells; assay type: cell-based
# [19] = target: T2, Sodium-dependent noradrenaline transporter; test: Inhibition of [3H]norepinephrine reuptake at human NET expressed in HEK293 cells; assay type: cell-based
# [20] = tested on: Rattus norvegicus; test: Effect on behavioural activity in rat assessed as cocaine-induced lever response at 1 mg/kg, po pretreated with cocaine for 360 mins by drug-discrimination studies; assay type: functional
# [21] = tested on: Rattus norvegicus; test: Effect on behavioural activity in rat assessed as cocaine-induced lever response at 1 mg/kg, po pretreated with cocaine for 41 mins by drug-discrimination studies; assay type: functional
# [22] = tested on: Rattus norvegicus; test: Effect on behavioural activity in rat assessed as cocaine-induced lever response at 1 mg/kg, po pretreated with cocaine for 180 mins by drug-discrimination studies; assay type: functional
# [23] = tested on: Rattus norvegicus; test: Effect on behavioural activity in rat assessed as cocaine-induced lever response at 1 mg/kg, po pretreated with cocaine for 90 mins by drug-discrimination studies; assay type: functional
# T1 sequence (P31645 whole entry): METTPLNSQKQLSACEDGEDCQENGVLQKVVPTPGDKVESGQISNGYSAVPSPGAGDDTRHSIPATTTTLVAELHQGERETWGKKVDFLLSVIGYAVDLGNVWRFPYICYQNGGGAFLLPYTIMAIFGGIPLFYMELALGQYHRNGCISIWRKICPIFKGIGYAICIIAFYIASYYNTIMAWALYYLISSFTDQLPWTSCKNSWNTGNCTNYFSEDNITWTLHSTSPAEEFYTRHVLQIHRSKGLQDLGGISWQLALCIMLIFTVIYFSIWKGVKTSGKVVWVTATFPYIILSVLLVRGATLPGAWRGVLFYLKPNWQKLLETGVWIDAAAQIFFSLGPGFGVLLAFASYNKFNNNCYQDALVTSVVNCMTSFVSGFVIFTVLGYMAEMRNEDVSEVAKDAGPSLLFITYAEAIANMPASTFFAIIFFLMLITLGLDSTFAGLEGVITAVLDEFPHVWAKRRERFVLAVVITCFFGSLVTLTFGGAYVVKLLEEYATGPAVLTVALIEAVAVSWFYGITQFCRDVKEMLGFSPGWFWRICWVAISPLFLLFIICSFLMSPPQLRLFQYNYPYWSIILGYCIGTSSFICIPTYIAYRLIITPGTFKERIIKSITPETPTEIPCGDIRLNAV
# T2 sequence (P23975 whole entry): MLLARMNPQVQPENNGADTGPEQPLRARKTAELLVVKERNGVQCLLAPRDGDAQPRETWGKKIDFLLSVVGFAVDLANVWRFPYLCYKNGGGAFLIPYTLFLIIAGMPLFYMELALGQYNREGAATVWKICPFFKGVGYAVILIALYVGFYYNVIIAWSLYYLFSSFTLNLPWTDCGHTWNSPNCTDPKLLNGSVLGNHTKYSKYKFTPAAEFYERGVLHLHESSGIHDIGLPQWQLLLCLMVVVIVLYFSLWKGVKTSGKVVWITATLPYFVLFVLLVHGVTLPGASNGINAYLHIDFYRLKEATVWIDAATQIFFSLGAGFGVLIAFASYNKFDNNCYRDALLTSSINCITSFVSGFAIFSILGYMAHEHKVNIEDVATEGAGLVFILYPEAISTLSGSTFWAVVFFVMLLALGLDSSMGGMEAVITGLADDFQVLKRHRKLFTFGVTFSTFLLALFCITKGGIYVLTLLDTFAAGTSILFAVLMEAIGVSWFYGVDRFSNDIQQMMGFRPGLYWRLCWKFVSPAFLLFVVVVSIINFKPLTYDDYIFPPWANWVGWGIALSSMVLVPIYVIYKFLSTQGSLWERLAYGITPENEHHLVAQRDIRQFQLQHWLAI
# T3 sequence (Q01959 whole entry): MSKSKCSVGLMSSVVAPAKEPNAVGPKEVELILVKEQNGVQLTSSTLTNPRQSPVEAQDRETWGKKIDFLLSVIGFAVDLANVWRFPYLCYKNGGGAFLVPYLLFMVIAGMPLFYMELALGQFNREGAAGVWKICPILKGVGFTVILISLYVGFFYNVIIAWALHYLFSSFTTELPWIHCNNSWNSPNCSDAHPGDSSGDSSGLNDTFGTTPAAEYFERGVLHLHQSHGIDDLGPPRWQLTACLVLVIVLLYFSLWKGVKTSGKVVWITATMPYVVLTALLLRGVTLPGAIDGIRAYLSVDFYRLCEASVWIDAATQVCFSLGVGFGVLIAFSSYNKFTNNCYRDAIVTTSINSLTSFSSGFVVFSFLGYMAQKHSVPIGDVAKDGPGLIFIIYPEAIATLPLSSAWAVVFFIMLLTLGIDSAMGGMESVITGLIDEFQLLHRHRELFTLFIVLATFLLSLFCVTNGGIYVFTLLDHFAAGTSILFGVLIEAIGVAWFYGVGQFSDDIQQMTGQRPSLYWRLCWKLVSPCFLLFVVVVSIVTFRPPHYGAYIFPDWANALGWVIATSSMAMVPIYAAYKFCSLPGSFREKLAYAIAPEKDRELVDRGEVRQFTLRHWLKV
SMILES,Time [1] [min],Activity [2] [%],Activity [3] [%],Activity [4] [%],pKi [6],ED50 [7] [mg/kg],Activity [8] [%],Time to peak locomotor stimulation [9] [min],Activity [10] [%],pKi [11],ED50 [12] [mg/kg],Activity [14] [%],pKi [17],also measured
CC(C)NC(C)C(=O)c1cccc(Cl)c1 (stereo unspecified),50,46,73.5,43.8,< 5.00,6.2,53.3,20,94.9,< 5.00,8.8,78.6,,Activity [5]: 27%; Activity [13]: 0.3%; Activity [15]: 21.2%
CC(C)CC(NC(C)(C)C)C(=O)c1cccc(Cl)c1 (stereo unspecified),60,89,,,5.21,25.7,,260,,5.64,,,6.85,pIC50 [16]: 6.36; pIC50 [18]: < 5.00; pIC50 [19]: 6.44
CC(NC(C)(C)C)C(=O)c1ccc(Cl)cc1 (stereo unspecified),,,,0.1,< 5.00,,32.7,,33.3,< 5.00,,18.1,,Activity [20]: 0%; Activity [21]: 0%; Activity [22]: 0%; Activity [23]: 0%
Cc1ccc(C(=O)C(C)NC(C)(C)C)cc1 (stereo unspecified),60,26,66.7,0.6,< 5.00,3.8,,30,100,,17.3,16.7,< 5.00,
